This is an account of results in PubChem BioAssay (NCI).

“And” between values parts separate entries of the source, which are not always exact repeats. Equal values may be shown once.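 48-hour exposure; five concentrations; linearly interpolated endpoints. GI50 is the concentration that inhibits growth by half. At the TGI there is no net growth.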

Among the test systems are NCI-H460 lung; PC-3 prostate; SK-OV-3 ovarian; SNB-75 CNS; T-47D breast.
Holding throughout (assay): NCI tumour cell line growth inhibition, 48 h

`C/C(=C(/c1ccc(O)cc1)c1ccc(OCCN2CCCC2)cc1)c1ccccc1`: the GI50 with NCI-H460 lung was 2.36 µM; in the experiment with PC-3 prostate, 4.28 µM; with SK-OV-3 ovarian, 3.25 µM; in the experiment on SNB-75 CNS, 3.07 µM; with T-47D breast it was 0.716 µM. For the same molecule, the TGI in the experiment with NCI-H460 lung was 5.38 µM; in the experiment on PC-3 prostate, 14.7 µM; in the experiment with SK-OV-3 ovarian, 13 µM; in the experiment with SNB-75 CNS, 15.7 µM; in the experiment with T-47D breast it was 7.93 µM.

Turning to `CC(C)(C)n1cc(-c2ccnc(NCCNS(=O)(=O)c3ccc(Br)cc3)c2)c(-c2cccc(O)c2)n1`, the GI50 in the experiment on NCI-H460 lung was 1.93 µM; with PC-3 prostate, 1.46 µM; in the experiment with SK-OV-3 ovarian, 2.29 µM; in the experiment on SNB-75 CNS it was 1.36 µM; in the experiment with T-47D breast, 1.65 µM. Further, the TGI in the experiment with NCI-H460 lung came to 3.71 µM; in the experiment on PC-3 prostate, 4.38 µM; with SK-OV-3 ovarian, 6.1 µM; in the experiment on SNB-75 CNS, 3.78 µM; in the experiment with T-47D breast it was 5.44 µM.

Take `CCN(CC)CCC(=O)Nc1ccc(Cn2nnc3c2C(=O)c2nnn(Cc4ccc(NC(=O)CCN(CC)CC)cc4)c2C3=O)cc1`: the GI50 with NCI-H460 lung was 0.356 µM; with PC-3 prostate, 1.98 µM; with SK-OV-3 ovarian, 2.08 µM; with SNB-75 CNS, 0.314 µM. Besides, the TGI amounted to 1.46 µM in the experiment with NCI-H460 lung, 6.87 µM with PC-3 prostate, 5.88 µM in the experiment on SK-OV-3 ovarian and 0.88 µM in the experiment with SNB-75 CNS.

Regarding `Cc1nnc([S-])s1.[Au+].c1ccc([PH+](c2ccccc2)c2ccccc2)cc1`, the GI50 in the experiment with PC-3 prostate is 1.52 µM; in the experiment on SNB-75 CNS, 1.53 µM; in the experiment on T-47D breast, 2.2 µM. Also, the TGI with PC-3 prostate was 2.92 µM; in the experiment with SNB-75 CNS, 2.87 µM; with T-47D breast, 6.12 µM.

As to `COc1ccccc1Cn1cc2c(c1)-c1oncc1CC2`, the GI50 is 0.334 µM in the experiment on NCI-H460 lung; 2.01 µM in the experiment on PC-3 prostate; 0.46 µM with SK-OV-3 ovarian; 0.396 µM in the experiment with SNB-75 CNS; 2.15 µM in the experiment with T-47D breast. For the same molecule, the TGI in the experiment with NCI-H460 lung was 4.75 µM; in the experiment on PC-3 prostate, greater than 100 µM; in the experiment on SK-OV-3 ovarian it was 8.44 µM; in the experiment with SNB-75 CNS, 9.7 µM; in the experiment with T-47D breast it was greater than 100 µM.

On to `Cc1c(C(C)C)cc(OCCO)cc1C(C)C`, for which the TGI is greater than 100 µM in the experiment with NCI-H460 lung; 96.2 µM in the experiment with PC-3 prostate; greater than 100 µM with SK-OV-3 ovarian; greater than 100 µM in the experiment with SNB-75 CNS; greater than 100 µM with T-47D breast.

With `CC1Cc2c(N(C)C)ncnc2N(C)c2ccc(Cl)cc21` (stereo not drawn), the GI50 is 3.86 µM in the experiment with NCI-H460 lung; 3.41 µM with PC-3 prostate; 4.93 µM in the experiment on SK-OV-3 ovarian; 2.02 µM in the experiment with SNB-75 CNS; 6.56 µM in the experiment on T-47D breast. Moreover, the TGI in the experiment with NCI-H460 lung is 46.6 µM; with PC-3 prostate it was 81.6 µM; in the experiment on SK-OV-3 ovarian, 72.1 µM; in the experiment on SNB-75 CNS it was 8.52 µM; in the experiment with T-47D breast, greater than 100 µM.

As to `Cn1c(=O)n(-c2ccc(C(C)(C)C#N)cc2)c2c3cc(-c4cnc5ccccc5c4)ccc3ncc21`, the GI50 was < 0.01 µM and 0.00581 µM in the experiment with NCI-H460 lung; < 0.01 µM and 0.0063 µM in the experiment with PC-3 prostate; < 0.01 µM and 0.00494 µM in the experiment on SK-OV-3 ovarian; less than 0.001 µM with SNB-75 CNS; < 0.01 µM and 0.0141 µM in the experiment with T-47D breast. Moreover, the TGI is greater than 100 µM with NCI-H460 lung; greater than 100 µM in the experiment with PC-3 prostate; 0.0442 µM and 0.0549 µM and 0.0293 µM in the experiment on SK-OV-3 ovarian; 0.0464 µM and 0.0263 µM in the experiment on SNB-75 CNS; 0.0488 µM and 0.0817 µM with T-47D breast.

`COc1cccc(-c2nn(-c3ccccc3)cc2-c2ccnc(NCCNC(=O)Nc3ccc(Cl)c(Cl)c3)c2)c1`: the GI50 is 1.88 µM in the experiment on NCI-H460 lung; 2.5 µM in the experiment on PC-3 prostate; 4.06 µM in the experiment with SK-OV-3 ovarian; 1.43 µM with SNB-75 CNS; 3.85 µM in the experiment on T-47D breast. For the same molecule, the TGI in the experiment with NCI-H460 lung was found to be 4.33 µM; in the experiment on PC-3 prostate it was 8.36 µM; in the experiment with SK-OV-3 ovarian, 14.4 µM; in the experiment on SNB-75 CNS it was 5.96 µM; in the experiment on T-47D breast, 24.7 µM.

In the case of `NC(Cc1nn[nH]n1)C(=O)O` (stereo not drawn), the TGI in the experiment with NCI-H460 lung, in the experiment on PC-3 prostate, in the experiment with SK-OV-3 ovarian, in the experiment on SNB-75 CNS and in the experiment on T-47D breast was greater than 100 µM in each case.

As for `COc1ccc2nc3ccc(OC)cc3c(SCCCN)c2c1`, the GI50 in the experiment with NCI-H460 lung was 8.66 µM; in the experiment with PC-3 prostate, 1.71 µM; in the experiment with SK-OV-3 ovarian, 14.2 µM; with SNB-75 CNS, 13 µM; in the experiment with T-47D breast, 3.08 µM. In addition, the TGI in the experiment on NCI-H460 lung came to 31.6 µM; in the experiment with PC-3 prostate, 4.68 µM; in the experiment with SK-OV-3 ovarian it was 29.9 µM; in the experiment on SNB-75 CNS, 27.9 µM; in the experiment on T-47D breast it was 14.2 µM.

With `c1ccc2c(c1)nc(NCCN1CCNCC1)c1c3ccccc3[nH]c21`, the GI50 was 0.221 µM in the experiment with NCI-H460 lung; 0.356 µM in the experiment with PC-3 prostate; 2.16 µM with SK-OV-3 ovarian; 1.44 µM with SNB-75 CNS; 0.903 µM in the experiment on T-47D breast. For the same molecule, the TGI worked out at 1.14 µM in the experiment on NCI-H460 lung; 1.97 µM in the experiment with PC-3 prostate; 8.53 µM in the experiment with SK-OV-3 ovarian; 2.86 µM in the experiment on SNB-75 CNS; 3.83 µM with T-47D breast.

With `Oc1cccc(-c2nc3ccccc3s2)c1`, the TGI with NCI-H460 lung is greater than 100 µM; with PC-3 prostate, greater than 100 µM; in the experiment on SK-OV-3 ovarian, greater than 100 µM; in the experiment on SNB-75 CNS, 61.8 µM; with T-47D breast, 56.8 µM.

`C[C@@H](NC(=O)Cc1cc(F)cc(F)c1)C(=O)N[C@@]1(C)N=C(c2ccccc2)c2ccccc2N(C)C1=O`: the GI50 was 40.4 µM in the experiment on NCI-H460 lung, 25.6 µM with PC-3 prostate, greater than 100 µM with SK-OV-3 ovarian and greater than 95.3 µM with SNB-75 CNS. Besides, the TGI in the experiment with NCI-H460 lung is greater than 100 µM; in the experiment on PC-3 prostate it was greater than 100 µM; in the experiment on SK-OV-3 ovarian, greater than 100 µM; with SNB-75 CNS it was greater than 100 µM; with T-47D breast, greater than 66.6 µM.

On to `CCOC(=O)c1[nH]c2c(c1C)-c1[nH]c(=O)c(S(=O)(=O)c3ccccc3)cc1SC2`, for which the GI50 was 34.6 µM in the experiment on NCI-H460 lung; 17.7 µM in the experiment on PC-3 prostate; 56.6 µM with SK-OV-3 ovarian; 24.8 µM in the experiment with SNB-75 CNS; 15.4 µM in the experiment with T-47D breast. The TGI with NCI-H460 lung was greater than 100 µM; with PC-3 prostate it was greater than 100 µM; with SK-OV-3 ovarian, greater than 100 µM; in the experiment with SNB-75 CNS, 86.6 µM; with T-47D breast, 58.9 µM.
